ChEMBL document CHEMBL1909046, “DrugMatrix in vitro pharmacology data”
pIC50, pKi: −log10 of the molar value.

Tests used:
[1] = molecular target: T1, Alpha-1A adrenergic receptor (Rattus norvegicus, UniProt P43140); test: DRUGMATRIX: Alpha-1A adrenergic receptor radioligand binding (ligand: prazosin); format: cell membranes, Wistar, Submaxillary gland, Membrane; conditions: Not Active = under 50% inhibition at 10 µM; for pIC50: read-out: IC50; for pKi: read-out: Ki
T1 sequence (P43140 whole entry): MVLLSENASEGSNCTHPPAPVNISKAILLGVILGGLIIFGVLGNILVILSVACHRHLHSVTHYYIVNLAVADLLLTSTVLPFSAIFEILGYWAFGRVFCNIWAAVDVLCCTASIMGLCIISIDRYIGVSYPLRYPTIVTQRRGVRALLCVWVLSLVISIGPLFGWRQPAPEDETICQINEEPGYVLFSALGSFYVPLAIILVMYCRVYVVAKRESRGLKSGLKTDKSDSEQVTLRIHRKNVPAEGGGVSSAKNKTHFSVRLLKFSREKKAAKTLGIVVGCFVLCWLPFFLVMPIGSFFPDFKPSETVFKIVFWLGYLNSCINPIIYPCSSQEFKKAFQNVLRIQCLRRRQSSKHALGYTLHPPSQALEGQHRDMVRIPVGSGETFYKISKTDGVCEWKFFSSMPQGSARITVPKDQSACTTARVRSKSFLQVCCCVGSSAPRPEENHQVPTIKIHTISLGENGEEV

[2] = molecular target: Kappa-type opioid receptor (Homo sapiens, UniProt P41145); test: DRUGMATRIX: Opiate kappa (OP2, KOP) radioligand binding (ligand: [3H] Diprenorphine); format: cell membranes, HEK293, Membrane; conditions: Not Active = under 50% inhibition at 10 µM; for IC50: hek293
Kappa-type opioid receptor, sequence (P41145 whole entry): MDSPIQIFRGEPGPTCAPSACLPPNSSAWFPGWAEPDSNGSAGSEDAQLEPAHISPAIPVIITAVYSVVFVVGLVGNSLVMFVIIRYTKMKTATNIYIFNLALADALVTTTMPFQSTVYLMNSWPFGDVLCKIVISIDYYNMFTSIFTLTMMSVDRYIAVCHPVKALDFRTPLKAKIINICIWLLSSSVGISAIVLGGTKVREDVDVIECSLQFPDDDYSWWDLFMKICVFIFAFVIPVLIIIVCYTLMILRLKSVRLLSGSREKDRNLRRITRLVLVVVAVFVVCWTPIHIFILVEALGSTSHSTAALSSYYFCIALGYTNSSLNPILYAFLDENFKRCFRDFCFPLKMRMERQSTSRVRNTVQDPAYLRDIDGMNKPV

[3] = molecular target: Delta-type opioid receptor (Homo sapiens, UniProt P41143); format: cell membranes, Membrane; conditions: hek293; also: in other assays of this panel Not Active means under 50% inhibition at 10 µM
Delta-type opioid receptor, sequence (P41143 whole entry): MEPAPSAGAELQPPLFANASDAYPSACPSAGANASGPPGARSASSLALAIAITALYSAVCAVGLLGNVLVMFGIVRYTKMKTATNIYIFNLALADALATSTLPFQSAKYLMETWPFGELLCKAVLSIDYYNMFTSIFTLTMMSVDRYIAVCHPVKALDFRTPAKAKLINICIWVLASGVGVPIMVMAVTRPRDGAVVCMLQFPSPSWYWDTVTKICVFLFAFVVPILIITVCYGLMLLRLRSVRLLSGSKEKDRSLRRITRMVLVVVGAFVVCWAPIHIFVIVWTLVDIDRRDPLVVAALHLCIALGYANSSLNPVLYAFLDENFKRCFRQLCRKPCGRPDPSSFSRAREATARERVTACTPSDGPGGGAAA

Caspase-1 = molecular target: T2, Caspase-1 (Homo sapiens, UniProt P29466); design: species or system Escherichia coli;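 also: Caspase-1 enzyme inhibition assay with a peptide substrate; in other assays of this panel Not Active means under 50% inhibition at 10 µM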
T2 sequence (P29466 whole entry): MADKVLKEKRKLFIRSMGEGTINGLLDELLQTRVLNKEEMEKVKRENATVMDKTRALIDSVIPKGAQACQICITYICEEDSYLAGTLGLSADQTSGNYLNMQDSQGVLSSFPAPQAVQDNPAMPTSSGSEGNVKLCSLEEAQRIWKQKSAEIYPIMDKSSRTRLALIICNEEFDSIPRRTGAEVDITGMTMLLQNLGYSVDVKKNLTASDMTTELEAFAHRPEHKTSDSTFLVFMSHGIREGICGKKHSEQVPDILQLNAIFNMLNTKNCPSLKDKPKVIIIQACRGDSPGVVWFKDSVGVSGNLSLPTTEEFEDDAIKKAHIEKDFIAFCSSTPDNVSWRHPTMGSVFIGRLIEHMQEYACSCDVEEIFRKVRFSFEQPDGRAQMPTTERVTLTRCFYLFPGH

[4] = molecular target: Matrix metalloproteinase-9 (Homo sapiens, UniProt P14780); test: biochemical; format: cell-based;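 also: inhibition of isolated MMP-9 enzyme activity toward a synthetic peptide substrate, from the DrugMatrix protease screening panel; in other assays of this panel Not Active means under 50% inhibition at 10 µM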
Matrix metalloproteinase-9, sequence (P14780 whole entry): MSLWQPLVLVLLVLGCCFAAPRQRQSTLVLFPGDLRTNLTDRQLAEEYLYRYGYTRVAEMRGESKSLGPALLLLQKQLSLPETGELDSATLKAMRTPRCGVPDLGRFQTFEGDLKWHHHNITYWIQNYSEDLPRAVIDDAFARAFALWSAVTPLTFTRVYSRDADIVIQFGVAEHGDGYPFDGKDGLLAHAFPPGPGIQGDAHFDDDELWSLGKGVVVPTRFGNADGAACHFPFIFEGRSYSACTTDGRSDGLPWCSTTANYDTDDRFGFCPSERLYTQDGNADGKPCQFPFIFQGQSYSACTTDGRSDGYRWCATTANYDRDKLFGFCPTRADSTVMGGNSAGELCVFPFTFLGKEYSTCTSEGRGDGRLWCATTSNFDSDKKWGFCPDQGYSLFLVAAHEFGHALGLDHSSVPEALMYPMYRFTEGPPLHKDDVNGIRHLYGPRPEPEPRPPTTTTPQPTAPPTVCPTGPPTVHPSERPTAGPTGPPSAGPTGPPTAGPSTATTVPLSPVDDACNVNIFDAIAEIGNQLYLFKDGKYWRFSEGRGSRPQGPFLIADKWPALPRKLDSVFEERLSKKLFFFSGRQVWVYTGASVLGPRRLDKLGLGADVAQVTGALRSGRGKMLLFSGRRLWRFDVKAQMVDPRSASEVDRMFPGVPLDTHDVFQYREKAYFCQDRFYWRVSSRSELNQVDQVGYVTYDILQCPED

Leukotriene C4 synthase = molecular target: T3, Leukotriene C4 synthase (Cavia porcellus, UniProt A6XA80); format: tissue-based, Lung;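 also: enzyme inhibition assay of leukotriene C4 synthase, using LTA4 as the substrate; in other assays of this panel Not Active means under 50% inhibition at 10 µM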
T3 sequence (A6XA80 whole entry): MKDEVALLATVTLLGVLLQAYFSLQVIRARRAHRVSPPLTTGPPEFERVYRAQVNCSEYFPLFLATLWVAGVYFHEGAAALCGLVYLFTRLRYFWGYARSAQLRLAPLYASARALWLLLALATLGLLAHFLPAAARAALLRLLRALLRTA

[5] = molecular target: T4, Alpha-1D adrenergic receptor (Homo sapiens, UniProt P25100); format: cell membranes, HEK293, Membrane; conditions: for pIC50: read-out: IC50; for pKi: read-out: Ki
T4 sequence (P25100 whole entry): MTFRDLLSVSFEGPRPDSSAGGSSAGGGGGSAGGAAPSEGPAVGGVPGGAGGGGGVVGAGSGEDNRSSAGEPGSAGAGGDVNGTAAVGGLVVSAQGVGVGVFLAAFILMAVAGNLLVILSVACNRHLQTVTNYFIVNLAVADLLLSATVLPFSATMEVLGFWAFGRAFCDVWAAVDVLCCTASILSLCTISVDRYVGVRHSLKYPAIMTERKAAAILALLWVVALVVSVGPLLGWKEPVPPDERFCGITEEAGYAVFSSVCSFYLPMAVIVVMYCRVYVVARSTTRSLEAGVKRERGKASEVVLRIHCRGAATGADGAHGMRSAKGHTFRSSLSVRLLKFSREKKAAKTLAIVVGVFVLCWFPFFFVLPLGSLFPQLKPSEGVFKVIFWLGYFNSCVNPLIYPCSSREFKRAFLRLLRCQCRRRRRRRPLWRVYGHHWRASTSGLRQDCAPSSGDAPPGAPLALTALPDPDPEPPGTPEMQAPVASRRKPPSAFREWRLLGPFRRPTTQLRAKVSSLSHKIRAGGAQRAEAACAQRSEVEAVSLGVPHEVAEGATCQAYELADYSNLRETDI

Molecule	IC50 [1]	IC50 [2]	IC50 [3]	IC50 (Caspase-1)	IC50 [4]	IC50 (Leukotriene C4 synthase)	IC50 ([5]; hek293)	pIC50 [1]	pKi [1]	pIC50 [5]	pKi [5]	Ki [1]	Ki [3]	Ki (Caspase-1)	Ki [4]	Ki (Leukotriene C4 synthase)	Ki ([5]; hek293)	pKi [2]	pIC50 ([2]; read-out: IC50)	pIC50 ([4]; read-out: IC50)
O=C(Oc1ccccc1C(=O)O)c1ccccc1O [SALSALATE]	Not Active	Not Active	Not Active	Not Active	Not Active	Not Active	Not Active	–	–	–	–	–	–	–	–	–	–	–	–	–
CNC1(c2ccccc2Cl)CCCCC1=O (stereo not drawn) [KETAMINE]	Not Active	Not Active	Not Active	Not Active	Not Active	Not Active	Not Active	–	–	–	–	–	–	–	–	–	–	–	–	–
Fc1ccc(C(c2ccc(F)cc2)N2CCN(C/C=C/c3ccccc3)CC2)cc1 [FLUNARIZINE]	–	Not Active	Not Active	Not Active	Not Active	Not Active	–	5.96	6.36	5.96	6.27	–	–	–	–	–	–	–	–	–
CN[C@H]1CC[C@@H](c2ccc(Cl)c(Cl)c2)c2ccccc21 [SERTRALINE]	Not Active	Not Active	Not Active	Not Active	Not Active	Not Active	Not Active	–	–	–	–	–	–	–	–	–	–	–	–	–
O=C(Nc1ccc(Br)cc1)c1cc(Br)cc(Br)c1O [TRIBROMSALAN]	Not Active	–	Not Active	Not Active	Not Active	Not Active	Not Active	–	–	–	–	–	–	–	–	–	–	–	–	–
CC(C)NCC(O)c1ccc(O)c(O)c1 (stereo not drawn) [ISOPROTERENOL]	Not Active	Not Active	Not Active	Not Active	Not Active	Not Active	Not Active	–	–	–	–	–	–	–	–	–	–	–	–	–
Cc1cccc(C)c1OCC(C)N (stereo not drawn) [MEXILETINE]	Not Active	Not Active	Not Active	Not Active	Not Active	Not Active	Not Active	–	–	–	–	–	–	–	–	–	–	–	–	–
MANGANESE CHLORIDE ANHYDROUS	Not Active	–	Not Active	Not Active	Not Active	Not Active	Not Active	–	–	–	–	Not Active	Not Active	Not Active	Not Active	Not Active	Not Active	–	–	–
CCN(CC)CCNC(=O)c1cc(S(C)(=O)=O)ccc1OC [TIAPRIDE]	Not Active	Not Active	Not Active	Not Active	Not Active	Not Active	Not Active	–	–	–	–	–	–	–	–	–	–	–	–	–
Clc1ccc(COC(Cn2ccnc2)c2ccc(Cl)cc2Cl)cc1 (stereo not drawn) [ECONAZOLE]	–	–	–	Not Active	–	Not Active	–	4.67	5.07	5.05	5.36	–	–	–	–	–	–	5.46	5.06	5.16
COc1c2occc2cc2ccc(=O)oc12 [METHOXSALEN]	Not Active	Not Active	Not Active	Not Active	Not Active	Not Active	Not Active	–	–	–	–	–	–	–	–	–	–	–	–	–
O.O.O.O.O.O.[Cl-].[Cl-].[Sr+2] [STRONTIUM CHLORIDE HEXAHYDRATE]	Not Active	Not Active	Not Active	Not Active	Not Active	Not Active	Not Active	–	–	–	–	–	–	–	–	–	–	–	–	–
COc1ccc(CCN(C)CCCC(C#N)(c2ccc(OC)c(OC)c2)C(C)C)cc1OC (stereo not drawn)	–	Not Active	Not Active	Not Active	Not Active	Not Active	Not Active	–	–	–	–	–	–	–	–	–	–	–	–	–
